Assay results taken from US20040063681A1, “Methods for using gold (III) complexes as anti-tumor and anti-HIV agents” (priority 2002, published 2004).

Key:
HeLa cells = assay: Flow cytometry annexin V/propidium iodide apoptosis assay; assay type: cell-based, human; details: after treatment (Complex 1a 6 and 15 h; straurosporine 15 h)
Description: Flow cytometry: The gold(III) porphyrin-induced apoptosis of the HeLa cell line has been further examined by flow cytometry. During the early phase of apoptosis, cells lose the asymmetry of their membrane phospholipids, although the integrity of the cell membrane is maintained. A negatively charged phospholipid, named phosphatidylserine (PS), which is located in the inner part of the plasma membrane, becomes exposed to the cell surface. A phospholipid-binding protein, annexin V (green emissive upon binding), with high affinity binds preferentially to PS. Apoptotic cells therefore can be stained by annexin V before the dying cell changes its morphology and hydrolyzes its DNA. On the other hand, both DNA and the PS would be exposed for necrotic cells. In this case, propidium iodide (PI, red emissive upon binding), can be used to stain selectively the naked DNA. Therefore, both apoptotic and necrotic cells can be discriminated after adding these two staining reagents. For apoptotic cells, only annexin V would stain; for necrotic cells, both annexin V and PI would stain.
For comparison, a control cell culture experiment was performed in the absence of Complex 1a and straurosporine. […] Throughout the flow cytometric experiment, <1% of necrotic cells were observed.

[1] = target: T1, HIV-1 reverse transcriptase (Human immunodeficiency virus type 1 group M subtype B, UniProt P04585); assay: HIV-1 reverse transcriptase activity, ELISA method; assay type: biochemical; details: drug concentration fixed at 6 μM
T1 construct: treatment of HIV-1 RT in Lysis buffer (2 ng, 128.7 μL) with Complex 1j
Experimental: HIV-1 reverse transcriptase activities were measured by an ELISA method (see Eberle et al, J. Virol. Methods, 40:347-356 (1992) performed by incubating the enzyme with digoxigenin-labeled deoxyuridin-5′-triphosphate (dUTP) and the biotin-labeled analogue during reverse transcription starting from the template/primer hybrid poly(A)•oligo(dT)15. After reverse transcription, the newly synthesized DNA was immobilized onto streptavidin-coated ELISA wells, and the incorporation of the dioxigenin-labeled dUTP was assayed by chemiluminescence method. For example, treatment of HIV-1 RT in Lysis buffer (2 ng, 128.7 μL) with Complex 1j (1.3 μL of […] stock solution) dissolved in TBS at 37° C. produced significant RT activity inhibition (˜95%) after 30 min incubation.

[2] = system: human cancer cell lines (HL-60, HepG2, HeLa, KB-3-1, KB-V1, SUNE1, CNE1); assay type: cell-based; details: killing oral epidermoid and nasopharyngeal cancer cells
Description: Human promyelocytic leukemia (HL-60), human hepatocellular carcinoma (HepG2), Human cervix epitheloid carcinoma cells (HeLa) and human oral epidermoid carcinoma cells (KB-3-1), were obtained from American Type Culture Collection (ATCC) (Rockville, Md.). The multi-drug-resistant variant KB-V1 cell line was obtained by stepwise selections for vinblastine resistance as described by Shen et al., J. Biol. Chem. 261:7762-7770 (1986)], and was generously provided by Dr Michael Gottesman (NIH, Bethesda, Md.). Human nasopharyngeal carcinoma cells (SUNE1 and its cisplatin resistance variant, CNE1) were derived from poorly differentiated NPC in Chinese patients as described by Gu et al., Chin. J. Cancer 2:270-272 (1983), and were generously provided by Dr S. W. Tsao (The University of Hong Kong, Hong Kong, PRC). Cell culture flasks and 96 well microtitre plates were from Nalge Nunc hit. Culture medium, other medium constituents and phosphate buffered saline (PBS) were obtained from Gibco BRL (Rockville, Md.). […]
The anti-cancer activities of the gold(III) porphyrin complexes were evaluated toward some established human cancer cell lines: promyelocytic leukemia (HL-60), hepatocellular carcinoma (HepG2), cervix epitheloid carcinoma (HeLa), epidermoid carcinoma (KB-3-1) and its multi-drug resistant variant (KB-V1), nasopharyngeal carcinoma (SUNE1) and its cisplatin-resistant variant (CNE1). […]

plasmid DNA (pDR2) = assay: Restriction endonuclease (ApaI) fragmentation assay; details: comparison compounds, lanes F and H of FIG. 8
Description: Binding of the metalloporphyrin onto a duplex DNA such as plasmid DNA (pDR2) is expected to occupy the binding site of the restriction enzyme ApaI, thereby inhibiting the enzymatic DNA digestion. See Ikeda et al., J. Am. Chem. Soc. 104:296-297 (1982).
After ApaI digestion, (lane B), three bands corresponding to 6.6, 4.4 and 2.0 kbp were observed.

calf thymus DNA [3] = assay: Viscosity evaluation of DNA; details: (η/ηo)^1/3 vs binding ratio r
Description: Viscosity evaluation. The binding interaction of the gold(III) porphyrins can be further investigated by examining the change of DNA viscosity upon binding of the metalloporphyrin. If the metalloporphyrin binds to DNA by intercalation, this would cause chain elongation, unwinding and stiffening of the DNA helix as a consequence of untwisting of the base pairs and helical backbone needed to accommodate the intercalator.
For comparison, the viscosity profiles for ethidium bromide (intercalator) and Hoechst 33342 (minor groove binder) are also shown is FIG. 10.

[4] = system: Human Cervix Epitheloid Carcinoma (HeLa); assay: MTT cytotoxicity, HeLa; assay type: cell-based
Description: (§1) Human promyelocytic leukemia (HL-60), human hepatocellular carcinoma (HepG2), Human cervix epitheloid carcinoma cells (HeLa) and human oral epidermoid carcinoma cells (KB-3-1), were obtained from American Type Culture Collection (ATCC) (Rockville, Md.). […] Cell culture flasks and 96 well microtitre plates were from Nalge Nunc hit. Culture medium, other medium constituents and phosphate buffered saline (PBS) were obtained from Gibco BRL (Rockville, Md.). Cell Proliferation Kit I (MTT) was purchased from Roche (Mannheim, Germany).

[5] = system: Human Hepatocellular Carcinoma (HepG2); assay: MTT cytotoxicity, HepG2; assay type: cell-based; details: growth inhibition
Description: (§2) Human promyelocytic leukemia (HL-60), human hepatocellular carcinoma (HepG2), Human cervix epitheloid carcinoma cells (HeLa) and human oral epidermoid carcinoma cells (KB-3-1), were obtained from American Type Culture Collection (ATCC) (Rockville, Md.). The multi-drug-resistant variant KB-V1 cell line was obtained by stepwise selections for vinblastine resistance as described by Shen et al., J. Biol. Chem. 261:7762-7770 (1986)], and was generously provided by Dr Michael Gottesman (NIH, Bethesda, Md.). Human nasopharyngeal carcinoma cells (SUNE1 and its cisplatin resistance variant, CNE1) were derived from poorly differentiated NPC in Chinese patients as described by Gu et al., Chin. J. Cancer 2:270-272 (1983), and were generously provided by Dr S. W. Tsao (The University of Hong Kong, Hong Kong, PRC). Cell culture flasks and 96 well microtitre plates were from Nalge Nunc hit. Culture medium, other medium constituents and phosphate buffered saline (PBS) were obtained from Gibco BRL (Rockville, Md.). Cell Proliferation Kit I (MTT) was purchased from Roche (Mannheim, Germany).
(§3) The anti-cancer activities of the gold(III) porphyrin complexes were evaluated toward some established human cancer cell lines: promyelocytic leukemia (HL-60), hepatocellular carcinoma (HepG2), cervix epitheloid carcinoma (HeLa), epidermoid carcinoma (KB-3-1) and its multi-drug resistant variant (KB-V1), nasopharyngeal carcinoma (SUNE1) and its cisplatin-resistant variant (CNE1). The experiments were carried out by following the MTT procedure (see Mosmann et al., J. Immunol. Methods 65:55-63 (1983). The IC50 values of the gold(III) porphyrin complexes together with that of cisplatin, and KAuCl4 are provided in Table 4a; and the IC50 values of the gold(III) Schiff-base and bis(pyridyl)carboxamide complexes are shown in Table 4b. The cytotoxicity profiles of some selected gold(III) porphyrin complexes toward SUNE1 and its cisplatin-resistant variant CNE1 are also shown in FIG. 7.

calf thymus DNA [6] = assay: UV-vis absorption titration with calf thymus DNA; assay type: binding; details: for hypochromicity / intrinsic binding constant (Kb): Tris buffer
Experimental: The calf thymus DNA was purchased from Sigma-Aldrich Chemical Co. and was purified by phenol-chloroform extraction. The DNA was dissolved in buffer (5 mM Tris, 5 mM NaCl, pH 7.2). The concentration (per base pair) of calf thymus DNA was determined spectrophotometrically on the basic of ε260, 13,200 M^−1cm^−1bp.
Absorption Titration. The binding interaction of the gold(III) porphyrins to duplex DNA has been studied by UV-vis spectroscopy.
where [ctDNA] is the concentration of DNA, Δεap═|εA−εB| in which εA=Aobs/[complex], and Δε=|εB−εF|. εB and εF correspond to the extinction coefficient of DNA-bound gold(III) porphyrin and the free gold(III) porphyrins, respectively.
The effect of temperature on the intrinsic binding constants was investigated. Using the van't Hoff equation (2): […]

[7] = system: Human Nasopharyngeal Carcinoma (SUNE1); assay: MTT cytotoxicity, SUNE1; assay type: cell-based
Description: as §1

[8] = system: Human Promyelocytic Leukemia (HL-60); assay: MTT cytotoxicity, HL-60; assay type: cell-based; details: growth inhibition
Description: as §2, §3

[9] = system: Human Nasopharyngeal Carcinoma (cisplatin resistance, CNE1); assay: MTT cytotoxicity, CNE1; assay type: cell-based
Description: as §1

[10] = Control UV-vis titration with sodium dodecyl sulfate instead of DNA; assay type: binding; details: sodium dodecyl sulfate (0-5 μM) instead of DNA
Description: See Neidle, S. DNA structure and recognition; Oxford University Press: Oxford, 1994; 74-79.

CN[C@@H]1C[C@H]2O[C@@](C)([C@@H]1OC)n1c3ccccc3c3c4c(c5c6ccccc6n2c5c31)C(=O)NC4 [straurosporine, reference compound]
annexin V emission (HeLa cells): the magnitude of the annexin V emission was enhanced

[Au+3].[Cl-].[Cl-].[Cl-].[Cl-].[K+] [KAu^IIICl4, reference compound]
HIV-1 RT inhibition [1]: 48%
times less potent than Complex 1a [2]: about 40 times

CCOc1ccc(-c2nc3ccc(-c4nc5ccc(N6CCN(C)CC6)cc5[nH]4)cc3[nH]2)cc1 [Hoechst 33342, reference compound]
effect on ApaI digestion of pDR2 (plasmid DNA (pDR2)): complete inhibition of the DNA digestion
change in viscosity of the DNA (calf thymus DNA [3]): no appreciable change in viscosity of the DNA

Fc1c(F)c(F)c(-c2c3nc(c(-c4c(F)c(F)c(F)c(F)c4F)c4ccc([n-]4)c(-c4c(F)c(F)c(F)c(F)c4F)c4nc(c(-c5c(F)c(F)c(F)c(F)c5F)c5ccc2[n-]5)C=C4)C=C3)c(F)c1F.[Au+3].[Cl-] [Complex 1g]
IC50 ratio [cisplatin/gold (III) porphyrin complexes] HeLa [4]: 3.52
IC50 ([4]; MTT, growth inhibition): 3180 nM
IC50 [5]: 2310 nM
hypochromicity (calf thymus DNA [6]; 291.8 K): 18.2%
intrinsic binding constant (Kb) (calf thymus DNA [6]; 291.8 K): 0.73 × 10^6 dm^3mol^−1
hypochromicity (calf thymus DNA [6]; 297.6 K): 18.0%
intrinsic binding constant (Kb) (calf thymus DNA [6]; 297.6 K): 0.58 × 10^6 dm^3mol^−1
hypochromicity (calf thymus DNA [6]; 301.4 K): 16.5%
intrinsic binding constant (Kb) (calf thymus DNA [6]; 301.4 K): 0.47 × 10^6 dm^3mol^−1
hypochromicity (calf thymus DNA [6]; 306.1 K): 10.1%
intrinsic binding constant (Kb) (calf thymus DNA [6]; 306.1 K): 0.42 × 10^6 dm^3mol^−1
hypochromicity (calf thymus DNA [6]; 311.7 K): 8.7%
intrinsic binding constant (Kb) (calf thymus DNA [6]; 311.7 K): 0.34 × 10^6 dm^3mol^−1
ΔH° (calf thymus DNA [6]; binding to calf thymus DNA, van't Hoff analysis): −7.0 ± 0.4 kcalmol^−1
ΔG° (298 K) (calf thymus DNA [6]; binding to calf thymus DNA, van't Hoff analysis, 298 K): −7.8 ± 0.5
IC50 ratio [cisplatin/gold (III) porphyrin complexes] SUNE1 [7]: 5.97
IC50 ([7]; MTT, growth inhibition): 2110 nM
IC50 [8]: 1450 nM
IC50 ratio [cisplatin/gold (III) porphyrin complexes] CNE1 [9]: 28.1
IC50 ([9]; MTT, growth inhibition, cisplatin resistant): 1450 nM
bathochromic shift [10]: 6 nm
hypochromicity of the Soret band [10]: 48%
